Experimental data from article PMC3070406 (The Pediatric infectious disease journal, 2011).

Legend:
[1] = system: NA of influenza A (H3N2) virus isolates; format: biochemical; conditions: read-out: Susceptibility to oseltamivir (mean IC50 ± SD)
[2] = system: NA of influenza A (H1N1) virus isolate; format: biochemical; conditions: read-out: Susceptibility to oseltamivir (mean IC50 ± SD)
matrix M2 protein = system: matrix M2 protein; parameters: species or system influenza A (H3N2) virus

Structure (SMILES): NC12CC3CC(CC(C3)C1)C2 [amantadine]
- Susceptibility to adamantanes (S31N mutation in M2 protein) (matrix M2 protein): resistance
